From patent US11964988B2, “Fused heterocyclic compounds as RET kinase inhibitors” (ARRAY BIOPHARMA INC., priority 2018, dated 2024)
Substitutions are numbered along the chain they refer to.

Experiments:
RET kinase Wild Type = RET kinase Wild Type (Homo sapiens, UniProt P07949);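 further: HTRF kinase activity assay on RET enzyme, 1 h reaction at 22 °C, dual-wavelength readout as percent of control, DMSO-only wells as 100%, pre-quenched reactions as 0%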
Method: The potency of compounds inhibiting several different RET kinase forms (Wild Type, V804M, G810R, & G810S) were determined using CisBio's HTRF® KinEASE™-TK assay technology. […] After a 1 hour incubation at 22° C., the extent of reaction was determined using a PerkinElmer EnVision multimode plate reader via HTRF dual wavelength detection, and the percent of control (POC) was calculated using a ratiometric emission factor. One hundred POC was determined using DMSO only samples (no compound present), and 0 POC was determined using pre-quenched control reactions.

G810R mutant RET kinase = G810R mutant RET kinase (Homo sapiens, UniProt P07949, G810R);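 further: HTRF KinEASE-TK enzymatic assay with 1 nM recombinant RET G810R, 1 h at 22 °C, dual-wavelength ratiometric readout, 100% control without compound, 0% from pre-quenched reactions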
Chain of G810R mutant RET kinase (P07949 29-1114 G810R): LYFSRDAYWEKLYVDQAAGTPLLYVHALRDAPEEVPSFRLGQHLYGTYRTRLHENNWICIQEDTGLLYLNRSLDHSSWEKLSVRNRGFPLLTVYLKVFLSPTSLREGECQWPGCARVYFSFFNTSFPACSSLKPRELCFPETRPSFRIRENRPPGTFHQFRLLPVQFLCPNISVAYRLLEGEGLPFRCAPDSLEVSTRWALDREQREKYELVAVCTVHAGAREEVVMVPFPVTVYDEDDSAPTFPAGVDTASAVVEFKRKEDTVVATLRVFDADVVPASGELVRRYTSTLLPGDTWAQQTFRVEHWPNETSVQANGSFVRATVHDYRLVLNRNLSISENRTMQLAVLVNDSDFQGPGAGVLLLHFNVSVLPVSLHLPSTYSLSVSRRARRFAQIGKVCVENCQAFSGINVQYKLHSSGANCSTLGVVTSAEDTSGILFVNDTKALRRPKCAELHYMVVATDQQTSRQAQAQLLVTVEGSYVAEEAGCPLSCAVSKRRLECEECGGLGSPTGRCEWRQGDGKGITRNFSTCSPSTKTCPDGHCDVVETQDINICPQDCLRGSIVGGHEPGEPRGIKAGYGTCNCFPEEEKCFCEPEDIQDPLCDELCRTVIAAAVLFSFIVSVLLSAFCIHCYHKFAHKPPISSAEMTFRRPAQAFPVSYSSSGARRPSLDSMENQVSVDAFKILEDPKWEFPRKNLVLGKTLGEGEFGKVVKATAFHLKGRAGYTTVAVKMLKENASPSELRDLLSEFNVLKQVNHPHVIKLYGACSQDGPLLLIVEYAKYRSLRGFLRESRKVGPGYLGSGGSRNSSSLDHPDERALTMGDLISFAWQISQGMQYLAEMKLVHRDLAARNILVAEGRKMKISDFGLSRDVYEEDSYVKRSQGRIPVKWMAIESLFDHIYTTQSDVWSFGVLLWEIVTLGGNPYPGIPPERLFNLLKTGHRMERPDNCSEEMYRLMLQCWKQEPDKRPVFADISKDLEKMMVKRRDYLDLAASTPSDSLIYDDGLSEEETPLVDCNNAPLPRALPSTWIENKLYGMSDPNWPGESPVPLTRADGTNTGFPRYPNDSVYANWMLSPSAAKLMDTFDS

[1] = target: T1, HEK-293 cells expressing a Kif5b-RET fusion protein (Homo sapiens, UniProt P07949); assay: RET Cell Assay (phospho-RET Tyr1062); format: cell-based; conditions: HEK-293 Kif5b-RET, 1 hour incubation, phospho-RET normalized to GAPDH; read-out: KIF5B-RET pTYR1062 Cell IC50
T1 construct: KIF5B (N-terminal portion incl. coiled-coil); expressed in transfected cells; host or cells: HEK-293; the other entry of the earlier key: KIF5B (P33176, Kinesin-1 heavy chain)
T1 sequence (P07949 713-1063 limits assumed): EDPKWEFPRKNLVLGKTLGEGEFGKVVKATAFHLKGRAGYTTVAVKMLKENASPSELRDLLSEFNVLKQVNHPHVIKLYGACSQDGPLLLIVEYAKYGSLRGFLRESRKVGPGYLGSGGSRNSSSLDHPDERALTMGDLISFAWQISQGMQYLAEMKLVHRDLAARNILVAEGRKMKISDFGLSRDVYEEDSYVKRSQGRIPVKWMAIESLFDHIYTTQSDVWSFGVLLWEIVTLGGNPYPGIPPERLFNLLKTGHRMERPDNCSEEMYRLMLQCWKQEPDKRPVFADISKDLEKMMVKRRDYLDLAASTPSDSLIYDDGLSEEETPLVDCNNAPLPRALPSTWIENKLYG
Method in brief: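 Kif5b-RET HEK-293 cells treated 1 hour with compound in DMEM (0.5% DMSO final), then fixed and immunostained for phospho-RET Tyr1062, normalized to GAPDH by infrared fluorescence. IC50 where the 4-parameter logistic fit of POC crosses 50.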

RET kinase V804M = RET kinase V804M (Homo sapiens, UniProt P07949, V804M); assay: RET Enzyme Assay (CisBio HTRF KinEASE-TK), V804M; format: biochemical; conditions: V804M RET, 1 mM ATP, averaged IC50; read-out: RET V804M Enz FRET IC50
Chain of RET kinase V804M (P07949 29-1114 V804M): as the sequence (P07949 29-1114 G810R) above, with V776M, R782G counted along it

[2] = target: T2, HEK-293 cells expressing a G810R mutant RET Kif5b-RET fusion protein (Homo sapiens, UniProt P07949, G810R); assay: RET G810R Mutant Cell Assay (phospho-RET Tyr1062); format: cell-based; conditions: HEK-293 Kif5b-RET G810R, 1 hour incubation, phospho-RET normalized to GAPDH
T2 construct: KIF5B (N-terminal portion incl. coiled-coil); expressed in transfected cells; host or cells: HEK-293; the other entry of the earlier key: KIF5B (P33176, Kinesin-1 heavy chain)
T2 sequence (P07949 713-1063 G810R limits assumed): T1 sequence (P07949 713-1063 limits assumed) with G98R
Method in brief: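 Engineered HEK-293 cells were treated 1 h with compound in DMEM, 0.5% DMSO final, then fixed, permeabilized and immunostained for phospho-RET Tyr1062 and GAPDH. In-cell fluorescence pRET signal was normalized to GAPDH; IC50 taken from a 4-parameter logistic fit of percent of control at 50 POC.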

G810S mutant RET kinase = G810S mutant RET kinase (Homo sapiens, UniProt P07949, G810S);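 further: HTRF KinEASE-TK kinase assay with recombinant enzyme, 1 h at 22 °C, dual-wavelength ratiometric read-out, percent of control (DMSO-only = 100, pre-quenched reaction = 0)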
Chain of G810S mutant RET kinase (P07949 29-1114 G810S): as the sequence (P07949 29-1114 G810R) above, with R782S counted along it

Chain of RET kinase Wild Type (P07949 29-1114): as the sequence (P07949 29-1114 G810R) above, with R782G counted along it

`C[C@H](n1c2c(c3c(N)ncnc31)-c1noc(C3CC3)c1[C@H](O)CC2)C(F)(F)F` (single isomer, unassigned) [Example 145] was tested. Which IC50 (RET kinase Wild Type) did it give?
The IC50 was 0.02 µM.

And the IC50 (G810R mutant RET kinase)?
The IC50 was 0.085 µM.

What about the IC50 [1] of the same molecule?
Its IC50 is 0.073 µM.

And the IC50 (RET kinase V804M)?
The IC50 was 0.031 µM.

And the IC50 [2]?
The IC50 was 0.12 µM.

And the IC50 (G810S mutant RET kinase)?
The IC50 was 0.101 µM.
